From PMC8838631, “Pistacia lentiscus L. Distilled Leaves as a Potential Cosmeceutical Ingredient: Phytochemical Characterization, Transdermal Diffusion, and Anti-Elastase and Anti-Tyrosinase Activities” (Molecules, 2022)
≈ marks a conversion by molar mass, not a printed value. Where two headings read alike, the source gives them in different places.

Key:
[1] = Transdermal diffusion, Franz diffusion cell with strat-M membrane; format: in vitro ADME; conditions: 5% EAE-hydro-cream, 24 h of incubation; for µg of Crossed Molecule/g of 5% Hydro-cream: strat-M membrane, 37 °C, mean ± SD (n = 9)
Description: The transdermal diffusion of 5% EAE-hydro-cream formulation was evaluated using Franz diffusion cell and start-M membrane. […] The receptor medium of the Franz cell was analyzed by HPLC-MS to determine the bioactive compounds that crossed the strat-M membrane after 24 h of incubation. […] The bioactive molecules FC and FM2 that crossed the strat-M membrane were subjected to quantification. […] Moreover, FC has crossed the membrane but with a lower concentration than FM2 (Table 4).
Transdermal diffusion was evaluated using a Franz diffusion cell system, as mentioned by Chuang et al. with certain modifications. Firstly, the start-M membrane, a model membrane for transdermal diffusion, was mounted in a Franz diffusion cell. Then, 5 mL of 0.1 M sodium phosphate buffer (PBS) and 1 g of extract formulation cream were placed in the receptor and the donor compartments, respectively. The extract formulation cream was prepared by mixing the hydro-cream base emulsion purchased from Galderma and the EAE at 5% (w/w) by a mechanical stirrer (VMI Rayneri, Francelab, Paris, France). The receptor medium of the Franz cell was maintained at 37 °C and stirred with a magnetic stirrer at 400 rpm. After 24 h, the receptor medium was recovered, evaporated, freeze-dried, and then 4 mL of MeOH was added. The sample was filtered through a 0.45 filter and analyzed by HPLC-MS to determine the bioactive molecules that were released from the start-M membrane. The bioactive molecules that crossed the start-M membrane were then quantified, as described in Section 4.4.6, by injecting the receptor medium through HPLC-DAD at a concentration of 10 mg/mL. Results were expressed as µg of molecule crossed the membrane/g of 5% EAE-hydro-cream.

[2] = molecular target: T1, cellular tyrosinase in B16 cells (Mus musculus, UniProt P11344); assay: Cellular tyrosinase activity assay on B16 cells; format: cell-based
T1 sequence (P11344 19-533): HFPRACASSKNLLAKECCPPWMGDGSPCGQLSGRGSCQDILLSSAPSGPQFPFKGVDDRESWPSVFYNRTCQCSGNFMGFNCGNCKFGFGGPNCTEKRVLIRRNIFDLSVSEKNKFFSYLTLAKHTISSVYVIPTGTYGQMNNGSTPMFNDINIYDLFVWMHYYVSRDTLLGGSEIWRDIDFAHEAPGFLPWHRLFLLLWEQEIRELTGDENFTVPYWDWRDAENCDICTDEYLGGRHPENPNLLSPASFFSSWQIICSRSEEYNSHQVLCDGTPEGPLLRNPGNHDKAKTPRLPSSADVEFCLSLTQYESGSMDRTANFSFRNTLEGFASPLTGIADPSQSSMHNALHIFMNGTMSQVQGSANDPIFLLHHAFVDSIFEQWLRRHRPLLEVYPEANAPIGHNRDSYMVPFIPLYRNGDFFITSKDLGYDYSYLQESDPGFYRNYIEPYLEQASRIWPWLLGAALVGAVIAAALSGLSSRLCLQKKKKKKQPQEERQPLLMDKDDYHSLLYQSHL
Description: The cellular tyrosinase inhibition activity on B16 cells was evaluated using EAE, FC, and FM2.
(§1) B16 cells (C57BL/6, Resource No. RBRC-RCB0557) used in this study were prepared as described by Elloumi et al..
The cellular tyrosinase activity on B16 cells was evaluated as described by Kamei et al. with some modifications. Briefly, B16 cells were incubated in a 96-well plate (25 × 10^3 cells/well) for 24 h. […] After that, the cells were washed with PBS and lysed with PBS supplemented with 1% of Triton-X/PBS, after 48 h of samples exposure. A volume of 100 µL of 0.1% L-DOPA was added to the wells for 1 h. […] The cellular tyrosinase inhibition was measured as follows:% Cellular tyrosinase inhibition = (ODcontrol − ODsample)/ODcontrol × 100(5)

B16 cells = assay: Cell viability / cytotoxicity, MTT assay; conditions: B16 cells, MTT; viability above 70% considered non-toxic (ISO 10993-5)
Description: (§2) The cell viability of EAE and the two major isolated molecules FC and FM2 were evaluated against B16 cells.
as §1
(§3) The MTT assay was performed to evaluate the cytotoxicity effect of our samples on B16 cells. Different sample concentrations (2.5–80 µg/mL) were applied to the Cells. The […] was measured as follows:% Cell viability = (ODsample/ODcontrol) × 100(4)

[3] = Cell viability / cytotoxicity, MTT assay; conditions: mouse
Description: as §2, §1, §3

[4] = molecular target: porcine pancreatic elastase (Sus scrofa, UniProt P00772); assay: Elastase inhibition assay (N-succinyl-Ala-Ala-Ala-p-nitroanilide substrate); format: biochemical; conditions: for remaining activity at 100 µg/mL: read-out: Elastase activity (% of control)
Description: The elastase inhibition activity of EAE and its pure molecules FC and FM2 was evaluated at different concentrations ranging from 12 to 100 µg/mL. […] At a concentration of 100 µg/mL, the percentages of elastase activity with EAE, FC, and FM2 were equal to 12%, 42%, and 29%, respectively. Besides, the percentage of elastase activity with Epigallocatechin gallate was 8%.
The elastase inhibitory effect of our samples was evaluated as described by Angelis et al., using the enzyme porcine pancreatic elastase and the substrate N-succinyl-Ala-Ala-Ala-p-nitroanilide. The extract and the pure molecules were evaluated at concentrations ranging between 12 and 100 µg/mL. Epigallocatechin gallate was used as a positive control. The elastase inhibition was measured using Equation (3):% Elastase inhibition = (ODcontrol − ODsample) ODcontrol × 100(3)

mushroom tyrosinase = assay: Tyrosinase inhibition assay (L-DOPA substrate); format: biochemical; conditions: for IC50 of tyrosinase activity: L-DOPA; for Tyrosinase activity (% of control): at a concentration of 100 µg/mL
Description: EAE and its pure molecules FC and FM2 were evaluated in vitro for their tyrosinase inhibition activity.
The inhibitory effect of our samples on the mushroom tyrosinase enzyme was analyzed using the substrate L-DOPA [71]. The extract and the pure molecules were evaluated at concentrations ranging between 12 and 200 µg/mL. […] The tyrosinase inhibition was measured as follows:% Tyrosinase inhibition = (ODcontrol − ODsample)/ODcontrol × 100(2)

[5] = DPPH radical scavenging assay
Description: The DPPH scavenging test was carried out using the method mentioned by Brand-Williams et al.. The percentage of DPPH scavenging was measured using Equation (1): % DPPH scavenging = (ODcontrol − ODsample)/ODcontrol × 100(1)

[6] = at a concentration of 100 µg/mL

Chain of porcine pancreatic elastase (P00772 27-266): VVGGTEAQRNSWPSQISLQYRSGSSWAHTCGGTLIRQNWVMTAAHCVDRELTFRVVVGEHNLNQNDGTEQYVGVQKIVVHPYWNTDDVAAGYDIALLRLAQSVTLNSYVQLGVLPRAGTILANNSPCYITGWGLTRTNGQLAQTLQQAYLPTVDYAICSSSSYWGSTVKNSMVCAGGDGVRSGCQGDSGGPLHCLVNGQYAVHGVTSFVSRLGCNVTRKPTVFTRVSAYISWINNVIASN

Row | Crossing of the strat-M membrane (detected in receptor medium by HPLC-MS) [1] | Tyrosinase activity (% of control) (mushroom tyrosinase) [%] | Compound | µg of Crossed Molecule/g of 5% Hydro-cream [1] | Concentration that did not decrease the percentage of cell viability (B16 cells) [ng/mL] | remaining activity at 100 µg/mL [4, 6] [%] | IC50 of tyrosinase activity (mushroom tyrosinase) [µg/mL] | also measured
1 |  |  | O=C(O[C@@H]1Cc2c(O)cc(O)cc2O[C@@H]1c1cc(O)c(O)c(O)c1)c1cc(O)c(O)c(O)c1 [Epigallocatechin gallate, reference compound] |  |  |  |  | Elastase activity (% of control) [4, 6]: 8%; IC50 of elastase activity ([4]; porcine pancreatic elastase): 12 µg/mL
2 |  | 7 | O=c1cc(CO)occ1O [kojic acid, reference compound] |  |  |  |  | 
3 | have crossed the membrane | 10 | C[C@@H]1O[C@@H](Oc2c(-c3cc(O)c(O)c(O)c3)oc3cc(O)cc(O)c3c2=O)[C@H](O)[C@H](O)[C@H]1O [FM2, myricetin-3-O-rhamnoside] | 52.102 ± 0.001 µg/g of 5% hydro-cream | ≤ 10000 | 29 | 34 | IC50 ([2]; B16 cells, 48 h of samples exposure, read-out: Cellular tyrosinase inhibition IC50 (converted)): 9.91 µM; IC50 ([3]; B16 cells): 19.3 ± 1.22 µg/mL (≈ 41.6 µM); IC50 ([4]; porcine pancreatic elastase, read-out: IC50 of elastase activity (converted)): 96.9 µM
4 |  |  | O=C1O[C@H]([C@@H](O)CO)C(O)=C1O [Ascorbic acid] |  |  |  |  | DPPH IC50 [5]: 13.85 µg/mL
5 | have crossed the membrane |  | O=c1c(O[C@@H]2O[C@H](CO)[C@H](O)[C@H](O)[C@H]2O)c(-c2ccc(O)c(O)c2)oc2cc(O)cc(O)c12 [quercetin-3-O-galactoside] |  |  |  |  | 

Row | Compound | Crossing of the strat-M membrane (detected in receptor medium by HPLC-MS) [1] | Tyrosinase activity (% of control) (mushroom tyrosinase) [%] | µg of Crossed Molecule/g of 5% Hydro-cream [1] | Concentration that did not decrease the percentage of cell viability (B16 cells) [ng/mL] | remaining activity at 100 µg/mL [4, 6] [%] | IC50 of tyrosinase activity (mushroom tyrosinase) [µg/mL] | also measured
6 | C[C@@H]1O[C@@H](Oc2c(-c3ccc(O)c(O)c3)oc3cc(O)cc(O)c3c2=O)[C@H](O)[C@H](O)[C@H]1O [FC, quercetin-3-O-rhamnoside] | have crossed the membrane | 9 | 3.161 ± 0.006 µg/g of 5% hydro-cream | ≤ 2500 | 42 | 49 | IC50 [2]: 7.49 µM; IC50 [3]: 6.4 ± 0.53 µg/mL (≈ 14.3 µM); IC50 [4]: 192 µM
